Experiments:
[1] = tested on: EB8-derived cells; experiment: Injection of ceramide analog treated EB8-derived cells into mouse brain, teratoma formation; assay type: in vivo, C57BL6 mice
Description: In vitro differentiating ES cells at stage EB8 were incubated for […] with 75 μM S18, or 35 μM N-acyl sphingosine or other ceramide analogs. Protein was isolated from cells incubated with S18 for 24 hours and from untreated cells, separated by SDS-PAGE, and the expression of Oct-4 was analyzed by immunoblotting.
Prior to injection into the mouse brain, ES cells were labeled with Vybrant-DiI (rhodamine fluorescence) for permanent vital staining and were mixed with India ink in order to track the injection channel and cell migration/tissue integration. 1×10^4 of the untreated ES-J1 cells were injected, while 2×10^4 of the S18-treated cells were injected in order to control for the percentage of cells lost to apoptosis. The ES cells were injected into the right brain hemisphere (bregma—1.5 mm, 1 mm lateral of central suture, 2.0 mm deep) of 8-10 day old C57BL6 mice using a Hamilton syringe. After 7-21 days, the mice were sacrificed, the brain isolated and fixed with 10% PBS-buffered formalin. The brains were Vibratome sectioned at 100 μm. The distribution of the injected cells was determined by fluorescence microscopy.

[2] = tested on: sfEBMs in suspension; experiment: S18 treatment of sfEBMs in suspension, histology and immunocytochemistry; assay type: cell-based, human
Description: To perform immunostaining on fixed cells or cytospins, the samples were washed in block buffer (3% goat serum, 1% polyvinyl Pyrolidone, 0.3% Triton X-100 in wash buffer) for 30 minutes, and then incubated with the appropriate dilution of the primary antibody, or combination of antibodies for 4-6 hours at room temperature. The primary antibodies were anti-Map2, a mouse monoclonal antibody recognizing the Map-2 a, b and c isoforms (Sigma, Catalog # M4403) at a 1/500 dilution; anti-Nestin, a rabbit polyclonal antibody (Chemicon, Catalog # AB5922) at a 1/200 dilution; anti-Oct-4, a rabbit polyclonal antibody (Santa Cruz, Catalog # sc-9081) at a 1/200 dilution; sheep anti-Tyrosine Hydroxlyase (TH) antibody (Pel-Freez, Catalog # P60101-0) at a 1/500 dilution; anti-phosphoHistoneH3, a rabbit polyclonal antibody (Upstate, Catalog, # 06-570) at a 1/400 dilution; anti-SSEA4, a mouse monoclonal antibody (Developmental Studies Hybridoma Bank, Catalog # MC-813-70) at a ⅕ dilution. The cells were then washed in wash buffer (50 mM Tris-HCL pH 7.5, and 2.5 mM NaCl) 3 times for 5 minutes each wash. The cells were then incubated for a minimum of 2 hours in secondary antibodies diluted 1:1000, followed by washing in wash buffer. The secondary antibodies were appropriate combinations of Alexa-350 (blue), -488 (green) or -568 (red) conjugated goat anti-chicken, anti-rabbit, anti-sheep or anti-mouse antibodies, all available from Molecular Probes. Some samples were stained with 5 ng/ml DAPI to detect cell nuclei, and were then washed from overnight to 2 days in a large volume of wash buffer. The slides were mounted with mounting medium and a cover slip. Slides were visualized using either a NIKON TS100 inverted microscope or a NIKON TE 2000-S inverted microscope with a Q Imaging digital camera
Essentially serum free embryoid bodies (sfEBMs) were generated as described in Example 6, and were exposed to S18 at different stages of their development in order to assess the timing of depletion of high Oct-4 expressing cells, and in order to determine when neural rosettes could be selected. The sfEBMs in suspension were treated with 10 μM S18 in 50% DMEM/F12, 50% MEDII, supplemented with 1×N2, Glutamine (20 mM), penicillin (0.5 U/ml), and streptomycin (0.5 U/ml) for varying amounts of time, and the sfEBMs were then evaluated histologically and by immunocytochemistry.
Essentially serum free embryoid bodies were derived from protease passaged cells and grown in the presence of 50% MEDII conditioned medium. The embryoid bodies were exposed to 10 μM S18 in the same medium from day 6 to 9 after derivation. At day 9 the S18 treated sfFBMs and matched control sfEBMs not exposed to S18 were fixed, embedded in plastic, cut to 3 micron sections and stained with DAPI to enable the precise determination of the proportion of the total healthy nuclei of an sfEBM that were rosette cell nuclei.

[3] = sfEBMs at day 14, 48 hours exposure to 10 μM S18

## CCCCCCCC/C=C\CCCCCCCC(=O)NC(CO)CO [S18, N-(2-hydroxy-1-(hydroxymethyl)ethyl)-oleoylamide]
[1]; EB8-derived cells treated with S18, injected into mouse brain, ten days after injection
  teratoma formation: did not show teratoma formation
[1]; S18-treated EB8-derived cells, Vybrant diI stained, host killed after 21 days
  migration and integration of injected cells: migrated to the hippocampus, and integrated into the host's brain tissue
[2]; 10 μM S18, four days
  viable embryoid bodies derived from monolayer crater cells: No viable embryoid bodies were observed
[2]; S18 selected sfEBM (10 μM) seeded at day 21, anti-Oct-4 staining
  regions of high Oct-4 expression (residual pluripotent cells): no regions of high Oct-4 expression could be detected
[2]; day 28 after derivation, 8 days after withdrawal of S18
  mitotic activity of neural rosette precursor cells (phosphoHistone H3): still mitotically active
[2]; exposure to 10 μM S18
  presumptive dopaminergic neurons or their precursors (anti-TH staining): not ablated
[2]; [3]
  apoptosis in sfEBMs: extensive apoptosis in the bodies
  morphology of rosette regions: morphologically normal
[2]; sfEBMs from protease passaged cells, 10 μM S18 from day 6 to 9
  population surviving incubation (DAPI stained sections): a very pure population of neural precursor rosette cells had survived

Reference: patent US7445931B2, “Compositions and methods for enrichment of neural stem cells using ceramide analogs” (Bresagen, Inc., priority 2002, dated 2008)
